Patent publication US20040229336A1, “Method for in vitro culture of viruses of the togaviridae and flaviviridae families and uses” (Bio Merieux, priority 1999, published 2004)

Assays:
HCV = test: Observation in patients infected both with HIV and with HCV taking HIV protease inhibitors; type: in vivo, human
Text: For this reason, it is advantageous to add to the method of the invention at least one apoptosis-modulating agent.

hepatitis C virus = test: Infection of PLC/PRF/5 cells with HCV-positive serum or LVP fractions, HCV genome in culture supernatants by semi-nested RT-PCR; type: cell-based, human
Description: The culture medium used is DMEM medium (marketed by Gibco BRL) supplemented with: 1 mM of sodium pyruvate (Gibco), 1% of nonessential amino acids (Boehringer Mannheim), 2 mM of glutamine (Gibco BRL), 200 U/ml of penicillin (bioMérieux), […] of streptomycin (bioMérieux) and 10% of calf serum (Boehringer).
The cells originate from the PLC/PRF/5 cell line (Alexander cells) (ATCC reference: CRL 8024), which is a line established from a human hepatocarcinoma. This line, which has integrated a defective hepatitis B genome, secretes the HBs antigen of the hepatitis B virus but no infectious virus. The cells are cultured in the complete DMEM medium (Gibco-BRL) supplemented with 10% of foetal calf serum, mentioned above. The cells are washed with PBS (Gibco-BRL) preheated to 37° C. 1 ml of DMEM supplemented with 0.2% of BSA (Sigma) and 50 μg/ml of lipoproteins originating from each fraction or 100 μl of serum filtered over a 0.45μ membrane are added. Simultaneously, a solution of oleic acid in isopropanol, prepared beforehand (100 mM), is added in a concentration range of 0.1 to 0.8 mM. The cells are then subjected to incubation for 3 hours at 37° C. under a 5% CO2 atmosphere. The medium is then replaced with complete DMEM medium supplemented with 10% of foetal calf serum. The cells are returned to the incubator under the conditions described above. […]

LSR receptor = biological target: T1, LSR receptor (Homo sapiens, UniProt Q86X29); test: Kinetics of attachment of the LVPs to the LSR receptor of hepatocytes (PLC/PRF/5 cells), quantitative RT-PCR of HCV RNA; type: cell-based; settings: 0.5 mM oleate vs without oleate, +4° C., 1 to 9 hours
T1 construct: endogenous in cells; host or cells: PLC/PRF/5 human hepatocarcinoma cells
T1 sequence (Q86X29 1-649): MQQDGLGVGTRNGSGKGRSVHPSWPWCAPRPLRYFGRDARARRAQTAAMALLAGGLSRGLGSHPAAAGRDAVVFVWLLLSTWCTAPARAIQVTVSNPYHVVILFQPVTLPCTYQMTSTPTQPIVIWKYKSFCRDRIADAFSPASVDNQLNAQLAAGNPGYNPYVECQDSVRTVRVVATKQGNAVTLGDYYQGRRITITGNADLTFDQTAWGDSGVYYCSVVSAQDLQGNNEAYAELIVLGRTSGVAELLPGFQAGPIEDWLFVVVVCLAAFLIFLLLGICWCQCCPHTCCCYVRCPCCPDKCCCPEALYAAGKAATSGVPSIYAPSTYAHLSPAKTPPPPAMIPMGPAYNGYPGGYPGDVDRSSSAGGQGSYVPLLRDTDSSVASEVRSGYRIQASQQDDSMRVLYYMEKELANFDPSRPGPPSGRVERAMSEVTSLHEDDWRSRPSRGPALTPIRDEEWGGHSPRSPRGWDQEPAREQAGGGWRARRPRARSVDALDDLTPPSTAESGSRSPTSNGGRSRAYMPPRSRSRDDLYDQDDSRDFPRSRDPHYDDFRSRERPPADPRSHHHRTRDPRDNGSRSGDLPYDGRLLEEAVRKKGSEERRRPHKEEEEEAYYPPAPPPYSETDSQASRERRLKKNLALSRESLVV
Description: A fraction containing LVPs with a density of between 1.025 g/ml and 1.055 g/ml was obtained from an HCV-positive serum as described in example 1.
The amount of proteins present in the LVP fraction was determined by the Lowry method using the “Protein Assay” kit (Sigma Diagnostics) and the viral titer was evaluated by quantification of the HCV RNA by RT-PCR and real-time fluorescence detection (LightCycler™, Roche) (Wittwer et al., Biotechniques, 22: 176-181 (1997)).
The PLC/PRF/5 cell line, described in example 2 and cultured in DMEM medium-10% SVF, was used for studying the attachment of LVPs to the LSR receptor in the presence or absence of oleate.
The results were obtained according to the following protocol:
The PLC/PRF/5 cells were seeded at 1 million cells/well, so as to obtain, after incubation for 24 hours at 37° C., 5% CO2, approximately 80% confluence.
Two washes in cold 1×PBS buffer were carried out, and then 1 ml of cold complete DMEM medium containing 0.2% of BSA is added to the PLC cells maintained on a bed of ice.
The LVP fraction (i.e. 10 mg of proteins and 1.7×10^6 of copies of HCV RNA) is added to the cells in the presence or absence of 0.5 mM oleate. […]
An incubation was carried out at +4° C. for a period of time ranging from 1 to 9 hours. […] The RNAs were then purified using this same kit and analyzed by quantitative RT-PCR (LightCycler™). […]

CC(C)c1nc(CN(C)C(=O)N[C@H](C(=O)N[C@@H](Cc2ccccc2)C[C@H](O)[C@H](Cc2ccccc2)NC(=O)OCc2cncs2)C(C)C)cs1 [Ritonavir]
HCV viremia and hepatic cytolysis (HCV): increase in the HCV virema associated with hepatic cytolysis

CCCCCCCC/C=C\CCCCCCCC(=O)O [oleic acid]
pathway for endocytosis of the LVPs at the time of the infection (hepatitis C virus; LVP fractions with densities <1.0063, 1.0063-1.063 and >1.063 g/ml): facilitates the pathway for endocytosis of the LVPs
presence of the HCV genome in the culture supernatants (hepatitis C virus; infection with 100 μl of serum of patients no. 1 and no. 2, with vs without 0.5 mM oleic acid): detected at a higher frequency
attachment of the LVPs to the LSR receptor (number of HCV RNA copies) (LSR receptor): significantly increased
